One assay concerns SW480 colon cancer cells. Nature of the assay: Cell viability assay (CellTiter-Blue), four days. Conditions: Homo sapiens, 96 h; for inhibition at 10 µM: read-out: percent inhibition at 10 μM (given for EC50 of >10 μM); for pEC50: CellTiter-Blue cell viability. The class given is cell-based. How it is done:
Representative compounds were screened using the following assay procedure to assess the effect on cell viability as described below.
Each compound was dissolved in DMSO as a 10 mM stock and used to prepare compound source plates. Serial dilution (1:3, 8-point dose-response curves from 10 μM to 0.0045 μM) and compound transfer was performed using the ECHO 550 (Labcyte, Sunnyvale, Calif.) into 96-well clear bottom, black-walled plates (Corning-Costar).
Approximately 2×10^3 SW480 colon cancer cells were seeded into each well and allowed to incubate in the presence or absence of compound for four days at 37° C./5% CO2. Eight replicates of DMSO-treated cells served as controls and cells treated with compound were performed in duplicate.
After incubation, 20 μL of CellTiter-Blue (Promega) was added to each well allowed to incubate for approximately 3 hours. This reagent was a buffered solution which contains resazurin, metabolically active cells were able to reduce rezarurin (blue) into resorufin (pink) which was highly fluorescent. This measured fluorescence was used as a readout for cell viability.
After incubation, the plates were read at Ex 560 nm Em 590 nm (Cytation 3, BioTek). Dose-response curves were generated and EC50 concentration values were calculated using non-linear regression curve fit in the GraphPad Prism (San Diego, Calif.) or Dotmatics' Studies Software (Bishops Stortford, UK). For EC50 of >10 μM, the percent inhibition at 10 μM is provided.

Assay [1] deals with Wnt activity (Wnt-responsive human Sp5 promoter, TCF/LEF binding sites) in SW480 colon carcinoma cells. The assay is described as follows: Wnt activity screening assay: Sp5-Luc luciferase reporter gene in SW480 cells. The class given is cell-based. Conditions: for pEC50: 10-point dose-response from 10 μM, incubated overnight; for inhibition at 10 µM: given for EC50 of >10 μM, read-out: percent inhibition at 10 μM. An excerpt: The screening assay for Wnt activity is described as follows. Reporter cell lines can be generated by stably transducing cancer cell lines (e.g., colon cancer) or primary cells (e.g., IEC-6 intestinal cells) with a lentiviral construct that includes a Wnt-responsive promoter driving expression of the firefly luciferase gene.
SW480 colon carcinoma cells were transduced with a lentiviral vector expressing luciferase with a human Sp5 promoter consisting of a sequence of eight TCF/LEF binding sites. SW480 cells stably expressing the Sp5-Luc reporter gene and a hygromycin resistance gene were selected by treatment with 150 μg/mL of hygromycin for 7 days. These stably transduced SW480 cells were expanded in cell culture and used for all further screening activities. Each compound was dissolved in DMSO as a 10 mM stock and used to prepare compound source plates. Serial dilution (1:3, 10-point dose-response curves starting from 10 μM) and compound transfer was performed using the ECHO 550 (Labcyte, Sunnyvale, Calif.) into 384-well white solid bottom assay plates (Greiner Bio-One) with appropriate DMSO backfill for a final DMSO concentration of 0.1%. For Sp5-Luc reporter gene assays, the cells were plated at 4,000 cells/well in 384-well plates with medium containing 1% fetal bovine serum and incubated overnight at 37° C. and 5% CO2. Following incubation, 20 μl of BrightGlo luminescence reagent (Promega) was added to each well of the 384-well assay plates. The plates were placed on an orbital shaker for 2 min and then luminescence was quantified using the Envision (Perkin Elmer) plate reader. Readings were normalized to DMSO only treated cells, and normalized activities were utilized for EC50 calculations using the dose-response log (inhibitor) vs. response-variable slope (four parameters) nonlinear regression feature available in GraphPad Prism 5.0 (or Dotmatics). For EC50 of >10 μM, the percent inhibition at 10 μM is provided.
A general note: A reporter such as luciferase makes a cellular process visible.

pEC50: −log10 of the molar value.

The text below walks through data of patent publication US10195185B2, “3-(1H-imidazo[4,5-C]pyridin-2-yl)-1H-pyrazolo[4,3-B]pyridines and therapeutic uses thereof” (Samumed, LLC, priority 2015, dated 2019).

Broadly, the inhibition is how much of the control response was suppressed. As usually defined, the pEC50 is the EC50 on a negative log10 scale, so that one unit is a factor of ten. Read a low pEC50 as a high EC50.

Turning to `CC(C)(C)CC(=O)Nc1cncc(-c2ccc3[nH]nc(-c4nc5c(-c6ccccc6F)nccc5[nH]4)c3n2)c1` [Compound 72, N-(5-(3-(4-(2-fluorophenyl)-1H-imidazo[4,5-c]pyridin-2-yl)-1H-pyrazolo [4,3-b]pyridin-5-yl)pyridin-3-yl)-3,3-dimethylbutanamide], in the assay with SW480 colon cancer cells, the inhibition at 10 µM was determined as 4.1% and the pEC50 was less than 5.00. In assay [1], the pEC50 was less than 5.00 and the inhibition at 10 µM amounted to 8.1%.

Regarding `O=C(Nc1cncc(-c2ccc3[nH]nc(-c4nc5c(-c6ccccc6F)nccc5[nH]4)c3n2)c1)C1CCCC1` [Compound 78, N-(5-(3-(4-(2-Fluorophenyl)-1H-imidazo[4,5-c]pyridin-2-yl)-1H-pyrazolo [4,3-b]pyridin-5-yl)pyridin-3-yl)cyclopentanecarboxamide], in the assay on SW480 colon cancer cells, the inhibition at 10 µM amounted to 19.8% and the pEC50 was less than 5.00. Further, in assay [1], the pEC50 was less than 5.00 and the inhibition at 10 µM was 14.8%.

With `Fc1ccccc1-c1nccc2[nH]c(-c3n[nH]c4ccc(-c5cncc(CNCC6CCCC6)c5)nc34)nc12` [Compound 81, 1-Cyclopentyl-N-((5-(3-(4-(2-fluorophenyl)-1H-imidazo[4,5-c]pyridin-2-yl)-1H-pyrazolo[4,3-b]pyridin-5-yl)pyridin-3-yl)methyl)methanamine], the pEC50 is 5.97 with SW480 colon cancer cells and 5.95 in assay [1].

In the case of `Fc1ccccc1-c1nccc2[nH]c(-c3n[nH]c4ccc(-c5ccccn5)nc34)nc12` [Compound 84, 3-(4-(2-Fluorophenyl)-1H-imidazo[4,5-c]pyridin-2-yl)-5-(pyridin-2-yl)-1H-pyrazolo[4,3-b]pyridine], the inhibition at 10 µM in the assay with SW480 colon cancer cells came out at 0%. Further, the pEC50 with SW480 colon cancer cells is less than 5.00; in assay [1], 6.42.

`c1cc(-c2ccc3[nH]nc(-c4nc5c(-c6ccncc6)nccc5[nH]4)c3n2)ccn1` [Compound 130, 5-(pyridin-4-yl)-3-(4-(pyridin-4-yl)-1H-imidazo[4,5-c]pyridin-2-yl)-1H-pyrazolo[4,3-b]pyridine]: the values for the inhibition at 10 µM (in the assay with SW480 colon cancer cells; in assay [1]) were 0% and 7.5%, respectively. For the same molecule, the pEC50 (in the assay on SW480 colon cancer cells; in assay [1]) was less than 5.00 each time.

Regarding `O=C(Nc1cncc(-c2ccc3[nH]nc(-c4nc5c(-c6ccncc6)nccc5[nH]4)c3n2)c1)C1CCCCC1` [Compound 135, N-(5-(3-(4-(pyridin-4-yl)-1H-imidazo[4,5-c]pyridin-2-yl)-1H-pyrazolo[4,3-b]pyridin-5-yl)pyridin-3-yl)cyclohexanecarboxamide], in the assay on SW480 colon cancer cells, the inhibition at 10 µM was found to be 1% and the pEC50 was less than 5.00. Moreover, in assay [1], the pEC50 was less than 5.00 and the inhibition at 10 µM was 2.8%.

In the case of `O=C(Nc1cncc(-c2ccc3[nH]nc(-c4nc5c(-c6ccccn6)nccc5[nH]4)c3n2)c1)c1ccccc1` [Compound 151, N-(5-(3-(4-(Pyridin-2-yl)-1H-imidazo[4,5-c]pyridin-2-yl)-1H-pyrazolo[4,3-b]pyridin-5-yl)pyridin-3-yl)benzamide], in the assay with SW480 colon cancer cells, the inhibition at 10 µM came out at 1.6% and the pEC50 was less than 5.00. Also, in assay [1], the pEC50 is less than 5.00 and the inhibition at 10 µM was 9.9%.

Consider `O=C(Nc1cncc(-c2ccc3[nH]nc(-c4nc5c(N6CCCCC6)nccc5[nH]4)c3n2)c1)C1CC1` [Compound 188, N-(5-(3-(4-(Piperidin-1-yl)-1H-imidazo[4,5-c]pyridin-2-yl)-1H-pyrazolo [4,3-b]pyridin-5-yl)pyridin-3-yl)cyclopropanecarboxamide], for which, in the assay with SW480 colon cancer cells, the inhibition at 10 µM was found to be 10.5% and the pEC50 was less than 5.00. In assay [1], the negative-log EC50 (pEC50) was less than 5.00 and the inhibition at 10 µM was 19%.

With `CN1CCN(c2nccc3[nH]c(-c4n[nH]c5ccc(-c6cncc(NC(=O)C7CCCC7)c6)nc45)nc23)CC1` [Compound 246, N-(5-(3-(4-(4-Methylpiperazin-1-yl)-1H-imidazo[4,5-c]pyridin-2-yl)-1H-pyrazolo [4,3-b]pyridin-5-yl)pyridin-3-yl)cyclopentanecarboxamide], in the assay on SW480 colon cancer cells, the inhibition at 10 µM is 0% and the pEC50 was less than 5.00. Besides, in assay [1], the pEC50 was less than 5.00 and the inhibition at 10 µM is 15%.

On to `CN1CCN(c2nccc3[nH]c(-c4n[nH]c5ccc(-c6cncnc6)nc45)nc23)CC1` [Compound 251, 3-(4-(4-Methylpiperazin-1-yl)-1H-imidazo[4,5-c]pyridin-2-yl)-5-(pyrimidin-5-yl)-1H-pyrazolo[4,3-b]pyridine], for which, in the assay with SW480 colon cancer cells, the inhibition at 10 µM was found to be 0% and the pEC50 is less than 5.00. In assay [1], the pEC50 is less than 5.00 and the inhibition at 10 µM was 17.7%.

Turning to `O=C(Cc1ccccc1)Nc1cncc(-c2ccc3[nH]nc(-c4nc5cnccc5[nH]4)c3n2)c1` [Compound 262, N-(5-(3-(1H-imidazo[4,5-c]pyridin-2-yl)-1H-pyrazolo[4,3-b]pyridin-5-yl)pyridin-3-yl)-2-phenylacetamide], the results for the inhibition at 10 µM (with SW480 colon cancer cells; in assay [1]) were 2.2% and 12.9%, respectively. Moreover, the pEC50 (with SW480 colon cancer cells; in assay [1]) was less than 5.00 in each case.

Consider `O=C(Nc1cncc(-c2ccc3[nH]nc(-c4nc5cnccc5[nH]4)c3n2)c1)C1CCCCC1` [Compound 275, N-(5-(3-(1H-Imidazo[4,5-c]pyridin-2-yl)-1H-pyrazolo[4,3-b]pyridin-5-yl)pyridin-3-yl)cyclohexanecarboxamide], for which, in the assay on SW480 colon cancer cells, the inhibition at 10 µM stood at 0% and the pEC50 is less than 5.00. In addition, in assay [1], the negative-log EC50 (pEC50) was less than 5.00 and the inhibition at 10 µM was found to be 0%.

As for `O=C(Nc1cncc(-c2ccc3[nH]nc(-c4nc5c(-c6ccsc6)nccc5[nH]4)c3n2)c1)c1ccccc1` [Compound 291, N-(5-(3-(4-(Thiophen-3-yl)-1H-imidazo[4,5-c]pyridin-2-yl)-1H-pyrazolo [4,3-b]pyridin-5-yl)pyridin-3-yl)benzamide], in the assay with SW480 colon cancer cells, the inhibition at 10 µM amounted to 2% and the pEC50 was less than 5.00. Besides, in assay [1], the pEC50 is less than 5.00 and the inhibition at 10 µM amounted to 3.3%.

For `c1ccc(CNCc2cncc(-c3ccc4[nH]nc(-c5nc6c(-c7ccsc7)nccc6[nH]5)c4n3)c2)cc1` [Compound 304, N-Benzyl-1-(5-(3-(4-(thiophen-3-yl)-1H-imidazo[4,5-c]pyridin-2-yl)-1H-pyrazolo [4,3-b]pyridin-5-yl)pyridin-3-yl)methanamine], the pEC50 with SW480 colon cancer cells was 5.41; in assay [1], 5.44.

For the molecule `c1cc2[nH]c(-c3n[nH]c4ccc(-c5cncc(CNCC6CCCC6)c5)nc34)nc2c(-c2ccoc2)n1` [Compound 333, 1-Cyclopentyl-N-((5-(3-(4-(furan-3-yl)-1H-imidazo[4,5-c]pyridin-2-yl)-1H-pyrazolo [4,3-b]pyridin-5-yl)pyridin-3-yl)methyl)methanamine], the pEC50 was 5.47 in the assay on SW480 colon cancer cells and 5.42 in assay [1].

Consider `CN1CCN(c2nccc3[nH]c(-c4n[nH]c5ccc(-c6cnccn6)nc45)nc23)CC1` [Compound 648, 3-(4-(4-Methylpiperazin-1-yl)-1H-imidazo[4,5-c]pyridin-2-yl)-5-(pyrazin-2-yl)-1H-pyrazolo[4,3-b]pyridine], for which the inhibition at 10 µM was determined as 5.4% in the assay with SW480 colon cancer cells and 1% in assay [1]. Moreover, the pEC50 (in the assay on SW480 colon cancer cells; in assay [1]) was less than 5.00 each time.

In the case of `c1cc2[nH]c(-c3n[nH]c4ccc(-c5cn[nH]c5)nc34)nc2cn1` [Compound 651, 3-(1H-Imidazo[4,5-c]pyridin-2-yl)-5-(1H-pyrazol-4-yl)-1H-pyrazolo[4,3-b]pyridine], in the assay on SW480 colon cancer cells, the inhibition at 10 µM stood at 13.5% and the pEC50 is less than 5.00. Moreover, in assay [1], the pEC50 was less than 5.00 and the inhibition at 10 µM is 22.3%.

As to `c1cc2[nH]c(-c3n[nH]c4ccc(-c5cncc(OC6CCNCC6)c5)nc34)nc2cn1` [Compound 656, 3-(1H-Imidazo[4,5-c]pyridin-2-yl)-5-(5-(piperidin-4-yloxy)pyridin-3-yl)-1H-pyrazolo[4,3-b]pyridine], the inhibition at 10 µM in the assay with SW480 colon cancer cells was found to be 10.9%; in assay [1], 15.4%. In addition, the negative-log EC50 (pEC50) (in the assay with SW480 colon cancer cells; in assay [1]) was less than 5.00 each time.
